Results reported in patent US11298314B2, “Injectable composition for localized fat reduction without pain, edema, and side effects, and method for preparing same” (AMI PHARM CO., LTD., priority 2017, dated 2022).
Entries after “also recorded” stand apart in the source; their conditions may differ.

What was measured:
[1] = Formulation stability of PPC injectable preparations: property, transparency, particle size, pH
inguinal fat pad = settings: 0.2 ml s.c. once into inguinal fat pad, 8 days post-injection
3T3-L1 adipocytes [2] = test: Lipolysis assay (glycerol release); type: cell-based; settings: 48 hours; listed as GCA single
Procedure: The glycerol activity assay was performed with the test materials to determine whether the cell death in the MTT assay was due to necrosis or lipolysis. Glycerol is a specific marker that increases when fat breaks down. Abcam Lipolysis Assay Kit (Colorimetric) was used according to the manufacturer's manual, and the method of the test was as follows: […] And then the lysis was induced. […] After adding the glycerol assay complex (50 μl) thereto, the solution was incubated at room temperature for 30 minutes. Absorbance was measured at OD 570 (using standard curve for absolute determination).

paw of the rats = test: Rat paw edema; type: in vivo, Sprague Dawley rats; settings: for degree of edema in words: 2 hours after administration, rat paw; for degree of edema, 1 hour after administration / degree of edema, 2 hours after administration / degree of edema, Immediately after administration: 0.1 ml into rat paw
Procedure, shortened: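 Male Sprague Dawley rats (6 weeks old, 170–200 g) received 0.1 ml of PBS or test composition into the paw. Paw thickness measured by caliper before, immediately after, and 1 or 2 h post-injection; edema graded 0–4, with injection-site skin lesions photographed.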

sole of the rat paws = test: Measurement of skin lesion (erythema) on rat paw; type: in vivo, Sprague Dawley rats; settings: for skin lesion (erythema) in words: 2 hours after administration;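 on grade of skin lesion (erythema), 1 hour after administration: grades − to ++++ mean no to extremely severe erythema versus before injection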;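 on grade of skin lesion (erythema), 2 hours after administration: grades − to ++++ mean no to extremely severe erythema versus before injection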;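 on grade of skin lesion (erythema), Immediately after administration: grades − to ++++ mean no to extremely severe erythema versus before injection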
Procedure, shortened: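 Male Sprague Dawley rats (6 weeks, 170–200 g) received 0.1 ml test composition or PBS injected into the paw. Paw thickness measured by caliper before, immediately after, and 1 or 2 h post-injection; sole lesions photographed and graded 0–4.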

[3] = tested on: Caspase 3 in 3T3-L1 adipocytes; test: Caspase 3 activity assay; type: cell-based; settings: 0-48 hours
Procedure: The Caspase 3 activity assay was performed with the test materials to determine whether the cell death in the result of MTT assay was due to necrosis or apoptosis. The Caspase 3 specifically increases when apoptosis occurs and is a marker of apoptosis. […] The cells were then treated with 50 ul of cell lysis buffer (10 mM Tris-HCl, 10 mM NaH2PO4/NaHPO4, pH 7.5, 130 mM NaCl, 1% Triton X-100 and 10 mM sodium pyrophosphate) and left at 4° C. for […]. The supernatant was collected by centrifugation at 1000× rpm for 1 minute, and protein quantification was performed by BCA method. The 50 μl of reaction buffer (4 mM HEPES, pH 7.5, 10% glycerol, 2 mM dithiothreitol) and 0.5 μl of 4 mM DEVD-p-NA were added to each sample and reacted at 37° C. for 1 hour. Then wavelength was measured with a […] at 405 nm.

[4] = tested on: tissues of the injected area (rat paw); test: H&E staining histological test (inflammation) of injected rat paw; type: in vivo, Sprague Dawley rats; settings: for degree of inflammation (H&E) in words: rats sacrificed at 3 hours, injected paw
Procedure: The tissues of the injected area were dissected, fixed with 10% formalin, and then the specimen was prepared and images were captured using an optical microscope. The degree of inflammation was evaluated as follows.

3T3-L1 adipocytes [5] = test: Adipocyte (3T3-L1) reducing effect, MTT assay; type: cell-based
Procedure: Tests were performed to compare the adipocyte reducing activity of the PPC single composition and the PPC composition solubilized with bile acids. Differentiated 3T3L-1 adipocyte lines were used to observe adipocyte reduction activity, and cell viability was monitored by MTT assay. […] Materials and methods employed in the following experiments are described below. In the following, % of the composition refers to % (w/v).
The specific test methods are as follows. […] The cells were washed twice with PBS, treated with MTT reagent (50 μl) and left at 37° C. for 2 hours. After removing the supernatant, MTT formazan crystals were dissolved in DMSO and the absorbance was measured at 540 nm using a microplate reader.
The 3T3-L1 adipocyte (ATCC) was cultured in Dulbecco's modified eagle medium (DMEM) (Invitrogen) supplemented with 10% fetal bovine serum, 100 units/ml penicillin and 100 μg/ml streptomycin under the condition of 5% CO2 and 37° C. […] Subsequently, the medium was replaced with DMEM medium containing 1 μg/ml insulin (Sigma), and the culture medium was maintained and changed every 2 to 3 days until the degree of differentiation reaches maximum. If it took more than 7 days, the cells were kept in normal DMEM culture medium until starting the tests. […] After the cells were incubated for 3 hours under the condition of 37° C. and 5% CO2, the MTT solution was removed.

[6] = bile acid single composition 1.0% (w/v)
[7] = bile acid single composition 2.5% (w/v)
[8] = bile acid single composition 5.0% (w/v)
[9] = bile acid single composition 7.5% (w/v)

## C[C@H](CCC(=O)NCC(=O)O)[C@H]1CC[C@H]2[C@@H]3[C@H](O)C[C@@H]4C[C@H](O)CC[C@]4(C)[C@H]3C[C@H](O)[C@]12C [GCA, 2-[[(4R)-4-[(3R,5S,7R,8R,9S,10S,12S,13R,14S,17R)-3,7,12-trihydroxy-10,13-dimethyl-2,3,4,5,6,7,8,9,11,12,14,15,16,17-tetradecahydro-1H-cyclopenta[a]phenanthren-17-yl]pentanoyl]amino]acetic acid]
[1]
  minimum molar ratio to PPC for a clear solution and mixed micelle of 10 nm or less: 0.76
[1]; based on PPC 5.0%
  bile acid concentration at which stable injectable preparations can be made: ≥ 2.2%
Inguinal fat pad
  histological change of adipocytes in fat tissue: clear cell membrane boundary and a well-formed cell shape
  inflammation at the site of administration, dermal and epidermal tissues: inflammation was clearly observed
3T3-L1 adipocytes [2]
  glycerol release / cytolytic activity: slightly higher cytolytic activity than at 24 hours; also recorded: slightly higher cytolytic activity than that of 24 hours
Paw of the rats; listed as GCA 1.0%
  degree of edema in words: Mild and mild
Paw of the rats; listed as GCA 2.5%
  degree of edema in words: moderate
Paw of the rats; listed as GCA 5.0%
  degree of edema in words: Moderate
Paw of the rats; [6]
  degree of edema, 1 hour after administration: + (mild edema [+, (the degree of swelling was 1-20% compared to before the injection)])
  degree of edema, 2 hours after administration: + (mild edema [+, (the degree of swelling was 1-20% compared to before the injection)])
  degree of edema, Immediately after administration: + (mild edema [+, (the degree of swelling was 1-20% compared to before the injection)])
Paw of the rats; [7]
  degree of edema, 1 hour after administration: ++ (moderate edema [++, (the degree of swelling was 20-40% compared to before the injection)])
  degree of edema, 2 hours after administration: ++ (moderate edema [++, (the degree of swelling was 20-40% compared to before the injection)])
  degree of edema, Immediately after administration: ++ (moderate edema [++, (the degree of swelling was 20-40% compared to before the injection)])
Paw of the rats; [8]
  degree of edema, 1 hour after administration: ++ (moderate edema [++, (the degree of swelling was 20-40% compared to before the injection)])
  degree of edema, 2 hours after administration: ++ (moderate edema [++, (the degree of swelling was 20-40% compared to before the injection)])
  degree of edema, Immediately after administration: ++ (moderate edema [++, (the degree of swelling was 20-40% compared to before the injection)])
Paw of the rats; [9]
  degree of edema, 1 hour after administration: ++++ (extremely severe edema [++++, (the degree of swelling was 60% or more compared to before the injection)])
  degree of edema, 2 hours after administration: ++++ (extremely severe edema [++++, (the degree of swelling was 60% or more compared to before the injection)])
  degree of edema, Immediately after administration: ++ (moderate edema [++, (the degree of swelling was 20-40% compared to before the injection)])
Sole of the rat paws; listed as GCA 1.0%
  skin lesion (erythema) in words: None
Sole of the rat paws; listed as GCA 2.5%
  skin lesion (erythema) in words: Mild
Sole of the rat paws; listed as GCA 5.0%
  skin lesion (erythema) in words: Mild
Sole of the rat paws; listed as GCA 7.5%
  skin lesion (erythema) in words: Moderate
Sole of the rat paws; [6]
  grade of skin lesion (erythema), 1 hour after administration: −
  grade of skin lesion (erythema), 2 hours after administration: −
  grade of skin lesion (erythema), Immediately after administration: −
Sole of the rat paws; [7]
  grade of skin lesion (erythema), 1 hour after administration: +
  grade of skin lesion (erythema), 2 hours after administration: +
  grade of skin lesion (erythema), Immediately after administration: +
Sole of the rat paws; [8]
  grade of skin lesion (erythema), 1 hour after administration: +
  grade of skin lesion (erythema), 2 hours after administration: +
  grade of skin lesion (erythema), Immediately after administration: +
Sole of the rat paws; [9]
  grade of skin lesion (erythema), 1 hour after administration: ++
  grade of skin lesion (erythema), 2 hours after administration: ++
  grade of skin lesion (erythema), Immediately after administration: +
[3]
  caspase-3 activity: no time or concentration-dependent change
[4]; bile acid single composition 1.0% (w/v), injected rat paw
  Inflammation (H&E), BA % (w/v) 1.0: +
[4]; bile acid single composition 2.5% (w/v), injected rat paw
  Inflammation (H&E), BA % (w/v) 2.5: ++
[4]; bile acid single composition 5.0% (w/v), injected rat paw
  Inflammation (H&E), BA % (w/v) 5.0: ++
[4]; bile acid single composition 7.5% (w/v), injected rat paw
  Inflammation (H&E), BA % (w/v) 7.5: ++
[4]; listed as GCA 1.0%
  degree of inflammation (H&E) in words: Mild
[4]; listed as GCA 2.5%
  degree of inflammation (H&E) in words: moderate
3T3-L1 adipocytes [5]; 24 to 96 hours, various concentrations
  adipocyte viability / adipocyte-reducing activity: reduced adipocyte viability in time and concentration dependent manner
3T3-L1 adipocytes [5]; after 96 hours, FIGS. 7F to 7H
  adipocyte-reducing effect at the same PPC concentration: lower adipocyte-reducing effect than PPC+GCA
